The target in assay [1] is T1, human B1R receptor (hB1R) (Homo sapiens, UniProt P46663).
T1 construct: host or cells: CHO K1 cells
T1 sequence (P46663 1-353): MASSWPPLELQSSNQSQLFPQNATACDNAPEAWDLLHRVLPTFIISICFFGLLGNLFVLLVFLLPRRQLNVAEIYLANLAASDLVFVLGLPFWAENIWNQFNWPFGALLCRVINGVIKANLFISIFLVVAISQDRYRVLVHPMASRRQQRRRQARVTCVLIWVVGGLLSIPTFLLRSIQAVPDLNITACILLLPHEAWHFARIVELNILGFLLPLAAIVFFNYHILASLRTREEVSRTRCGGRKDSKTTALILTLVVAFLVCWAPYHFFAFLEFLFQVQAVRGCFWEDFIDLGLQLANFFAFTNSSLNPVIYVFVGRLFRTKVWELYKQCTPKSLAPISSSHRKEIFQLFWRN
Put plainly: FLIPR Ca2+ assay on human bradykinin 1 receptor (CHO K1 hB1R cells). It counts as cell-based. The conditions noted are these: test substance 10 μM; CHO K1 cells with human B1R gene; agonist Lys-Des-Arg9-bradykinin 0.5 nM; compared to maximum achievable inhibition. Summed up:
(§1)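 Values are percent inhibition of agonist-evoked Ca²⁺ influx, measured by Fluo-4 fluorescence peak in FLIPR relative to maximum achievable inhibition. Compound at 10 μM was preincubated 10 min on B1R-transfected CHO K1 cells before challenge with 0.5 nM Lys-Des-Arg9-bradykinin (human) or 100 nM Des-Arg9-bradykinin (rat).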

Assay [2] deals with T2, B1R receptor of rats (rB1R) (Rattus norvegicus, UniProt P97583).
T2 construct: host or cells: CHO K1 cells
T2 sequence (P97583 1-337): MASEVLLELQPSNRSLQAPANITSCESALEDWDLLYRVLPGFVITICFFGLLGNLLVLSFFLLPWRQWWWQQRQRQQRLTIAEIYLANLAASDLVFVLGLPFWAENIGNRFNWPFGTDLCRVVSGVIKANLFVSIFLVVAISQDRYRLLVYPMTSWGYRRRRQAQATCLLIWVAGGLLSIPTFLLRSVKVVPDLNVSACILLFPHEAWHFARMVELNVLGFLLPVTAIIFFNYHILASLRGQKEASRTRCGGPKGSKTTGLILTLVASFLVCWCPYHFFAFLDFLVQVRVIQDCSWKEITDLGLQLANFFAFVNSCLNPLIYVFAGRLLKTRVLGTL
Kind of assay: FLIPR Ca2+ assay on rat bradykinin 1 receptor (CHO K1 rB1R cells). The format is cell-based. The conditions noted are these: test substance 10 μM; CHO K1 cells with B1R gene of rats; agonist Des-Arg9-bradykinin 100 nM; compared to maximum achievable inhibition. Summed up:
as §1

For `COc1cc(C)c(S(=O)(=O)N(C)CCOCC(=O)N2CCn3c(Cc4ccncc4)ccc3C2)c(C)c1` [Example 165, 4-Methoxy-N,2,6-trimethyl-N-(2-(2-oxo-2-(6-(pyridin-4-ylmethyl)-3,4-dihydropyrrolo[1,2-a]pyrazin-2(1H)-yl)ethoxy)ethyl)benzenesulfonamide], the inhibition at 10 µM is 100% in assay [1] and 99% in assay [2].
Turning to `COc1cc(C)c(S(=O)(=O)N(C)CCOCC(=O)N2CCn3c(ccc3-c3ccncc3)C2)c(C)c1` [Example 177, 4-Methoxy-N,2,6-trimethyl-N-(2-(2-oxo-2-(6-(pyridin-4-yl)-3,4-dihydropyrrolo[1,2-a]pyrazin-2(1H)-yl)ethoxy)ethyl)benzenesulfonamide], the inhibition at 10 µM is 99% in assay [1] and 97% in assay [2].
For the compound `COc1cc(C)c(S(=O)(=O)N(C)CCOCC(=O)N2CCn3cccc3C2c2ccc(C)c(C)c2)c(C)c1` (stereo not drawn) [Example 58, N-(2-(2-(1-(3,4-dimethylphenyl)-3,4-dihydropyrrolo[1,2-a]pyrazin-2(1H)-yl)-2-oxoethoxy)ethyl)-4-methoxy-N,2,6-trimethylbenzenesulfonamide], the results for the inhibition at 10 µM in assay [1] and in assay [2] were 102% and 97%, respectively.
The like results for `COc1cc(C)c(S(=O)(=O)N(C)CCOCC(=O)N2CCn3cccc3C2C(C)(C)C)c(C)c1` (stereo not drawn) [Example 52, N-(2-(2-(1-tert-butyl-3,4-dihydropyrrolo[1,2-a]pyrazin-2(1H)-yl)-2-oxoethoxy)ethyl)-4-methoxy-N,2,6-trimethylbenzenesulfonamide] were, in that order, 100% and 98%.
The like results for `CCCC1c2cccn2CCN1C(=O)COCCN(CC(C)C)S(=O)(=O)c1c(C)cc(OC)c(C)c1C` (stereo not drawn) [Example 101, N-isobutyl-4-methoxy-2,3,6-trimethyl-N-(2-(2-oxo-2-(1-propyl-3,4-dihydropyrrolo[1,2-a]pyrazin-2(1H)-yl)ethoxy)ethyl)benzenesulfonamide] were, in that order, 91% and 102%.
Turning to `Cc1cc(C)c(S(=O)(=O)N(C)CCOCC(=O)N2CCn3c(CN4CCCCC4)ccc3C2c2ccccc2)c(C)c1` (stereo not drawn) [Example 141, N,2,4,6-tetramethyl-N-(2-(2-oxo-2-(1-phenyl-6-(piperidin-1-ylmethyl)-3,4-dihydropyrrolo[1,2-a]pyrazin-2(1H)-yl)ethoxy)ethyl)benzenesulfonamide], the inhibition at 10 µM in assay [1] came to 103%; in assay [2] it was 101%.
With `Cc1cc(C)c(S(=O)(=O)N(C)CCOCC(=O)N2CCn3cccc3C2c2ccc(F)c(F)c2)c(C)c1` (stereo not drawn) [Example 71, N-(2-(2-(1-(3,4-difluorophenyl)-3,4-dihydropyrrolo[1,2-a]pyrazin-2(1H)-yl)-2-oxoethoxy)ethyl)-N,2,4,6-tetramethylbenzenesulfonamide], the inhibition at 10 µM in assay [1] and in assay [2] was 95% in each case.
For `COc1cc(C)c(S(=O)(=O)N(C)CCOCC(=O)N2CCn3cc(CN4CCCCC4)nc3C2)c(C)c1` [Example 2, 4-methoxy-N,2,6-trimethyl-N-(2-(2-oxo-2-(2-(piperidin-1-ylmethyl)-5,6-dihydroimidazo[1,2-a]pyrazin-7(8H)-yl)ethoxy)ethyl)benzenesulfonamide], the inhibition at 10 µM in assay [1] amounted to 106%; in assay [2], 104%.
`COc1cc(C)c(S(=O)(=O)N(CCOCC(=O)N2CCn3c(CN4CCCCC4)ccc3C2c2ccccc2)Cc2ccccc2)c(C)c1` (stereo not drawn) [Example 128, N-benzyl-4-methoxy-2,6-dimethyl-N-(2-(2-oxo-2-(1-phenyl-6-(piperidin-1-ylmethyl)-3,4-dihydropyrrolo[1,2-a]pyrazin-2(1H)-yl)ethoxy)ethyl)benzene-sulfonamide]: the inhibition at 10 µM was found to be 101% in assay [1] and 103% in assay [2].

Usually inhibition stands for the relative decrease from the control value, in per cent.

The values are drawn from patent publication US8263598B2, “Substituted sulfonamide compounds” (Gruenenthal GmbH, priority 2008, dated 2012).
